The test system of experiment [1] is endogenous cellular STAT1 (phosphorylated at Tyr701) in NCI-H1373 cells. In words: Phospho-STAT1 (Tyr701) LANCE Ultra TR-FRET Detection Assay. The experiment is classed as cell-based. The settings on record: Homo sapiens, NCI-H1373, 48 h, phospho-STAT1 (Tyr701) induction, read-out: NH1373 pSTAT1 EC50.
A further experiment addresses T1, PARP7 (Homo sapiens, UniProt Q7Z3E1).
T1 sequence (Q7Z3E1 1-657): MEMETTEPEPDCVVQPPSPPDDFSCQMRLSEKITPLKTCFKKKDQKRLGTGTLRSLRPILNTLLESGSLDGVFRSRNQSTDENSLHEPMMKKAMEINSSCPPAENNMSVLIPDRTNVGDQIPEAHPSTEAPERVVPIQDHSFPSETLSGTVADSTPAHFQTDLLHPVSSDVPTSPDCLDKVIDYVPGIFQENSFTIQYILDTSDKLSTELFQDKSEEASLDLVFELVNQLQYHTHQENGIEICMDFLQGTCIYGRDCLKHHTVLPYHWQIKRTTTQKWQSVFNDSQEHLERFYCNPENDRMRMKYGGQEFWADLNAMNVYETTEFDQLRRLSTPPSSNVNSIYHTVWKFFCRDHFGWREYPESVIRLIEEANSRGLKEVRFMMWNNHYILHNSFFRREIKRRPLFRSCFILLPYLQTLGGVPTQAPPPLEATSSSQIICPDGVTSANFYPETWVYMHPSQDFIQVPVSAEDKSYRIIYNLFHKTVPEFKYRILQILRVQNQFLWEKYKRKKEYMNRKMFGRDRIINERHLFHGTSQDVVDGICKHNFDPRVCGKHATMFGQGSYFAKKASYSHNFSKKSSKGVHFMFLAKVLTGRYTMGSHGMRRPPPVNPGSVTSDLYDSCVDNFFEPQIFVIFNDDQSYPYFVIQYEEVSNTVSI
Description: Probe Displacement Assay for PARP7 (MSD electrochemiluminescent, biotinylated probe RBNO11147). The settings on record: displacement of biotinylated probe RBNO11147 from PARP7 NAD+-binding site; read-out: MSD ProbeDisp PARP7 IC50.

The structures appear in SMILES notation.

As usually defined, the EC50 is the concentration needed to bring the measured effect to its halfway point. One may read the IC50 as the midpoint of a concentration-inhibition curve.

Description for PARP7: Displacement of a biotinylated probe (RBNO11147; Wigle et al., Cell Chemical Biology, 2020, pp. 877-887) from the PARP7 NAD+-binding site was measured in vitro using a Mesoscale Discovery electrochemiluminescent assay. […] Next, 10 ml of 10 nM PARP7 protein incubated for 1 hour at room temperature with a dose response curve of each test compound in a Greiner LDV polypropylene plate (#781201) is added to the MSD plate containing the immobilized probe. The interaction is allowed to reach equilibrium for 1.5 hours, and then 10 ml of SULFO-TAG labeled anti-GST antibody (Cat #R32AA-1) is added to each well and allowed to incubate for an additional 1.5 hours at room temperature. Finally, 10 ml of MSD read buffer T (4×, Cat. #R92C-1) is added to each well using a Bravo liquid handler to prevent air bubbles in the wells, and the plates are subsequently read in an MSD instrument. Light intensity is then measured to quantify the amount of PARP7 bound to the immobilized probe on the plate.

For the compound `Nc1nc(-c2cc3ccn(CCC[C@H](COC(F)F)Nc4cn[nH]c(=O)c4C(F)(F)F)c(=O)c3cc2F)ncc1Cl` [Example 378, (R)-6-(4-amino-5-chloropyrimidin-2-yl)-2-(5-(difluoromethoxy)-4-((6-oxo-5-(trifluoromethyl)-1,6-dihydropyridazin-4-yl)amino)pentyl)-7-fluoroisoquinolin-1(2H)-one], the concentration for a half-maximal effect (EC50) in experiment [1] worked out at 0.00245 µM. The IC50 on PARP7 was 0.255 nM.

In the case of `C[C@@H](CCCn1ccc2cc(-c3ccc(S(C)(=N)=O)cn3)cc(F)c2c1=O)Nc1cn[nH]c(=O)c1C(F)(F)F` (stereo partly drawn) [Example 40, 8-fluoro-6-[5-(methylsulfonimidoyl)-2-pyridyl]-2-[(4S)-4-[[6-oxo-5-(trifluoromethyl)-1H-pyridazin-4-yl]amino]pentyl]isoquinolin-1-one], the EC50 in experiment [1] amounted to 10 µM. Besides, the half-inhibitory concentration (IC50) on PARP7 amounted to 2.7 nM.
